Like-named read-outs stand apart in the source and are kept apart here.
Tests used:
[1] = system: C8166 cells; test: Cytotoxicity assay (MTT); type: cell-based
Experimental: (§1) The cytotoxicty assay was performed by 3-(4,5-dimethylthiazol-2-yl)-2,5-diphenyl tetrazoliumbromide (MTT) method. Briefly, 100 μL 4 × 10^4 C8166 cells were seeded each well with 100 μL of different concentrations of compounds in a 96-well plate. The plate was incubated 72 h at 37 °C, 5% CO2 incubator. MTT (20 μL, 5 mg/mL) was added to each well and the plate was incubated at 37 °C for 4 h. Supernatant (100 μL) was discarded and 20% SDS-50% DMF (100 μL) was added. The plates were read at 570/630 nm by a Bio-Tek Elx 800 reader (Bio-Tek Instruments, Inc., Winooski, VT, USA). The 50% cytotoxic concentration (CC50) was calculated.

[2] = system: HIV-1IIIB; test: Syncytia inhibition assay (HIV-1IIIB infected C8166 cells); type: cell-based; conditions: for TI (in vitro therapeutic index, CC50 value/EC50 value): CC50 in C8166 cells / EC50 syncytia inhibition; for EC50: HIV-1IIIB infected C8166 cells, 72 h, means of two separate experiments, read-out: EC50 (50% effective concentration, reduces syncytia formation by 50%)
Experimental: Target compounds 6–16 were evaluated for their inhibitory activity against HIV-1 replication in acutely infected C8166 cells in vitro according to the previously described method, and AZT was used as a positive control. The assay results of the target compounds are presented in Table 1 and Table 2, expressed as CC50, EC50 and therapeutic index (TI).
The syncytia inhibition assay was applied by counting syncytia which were formed by HIV-1IIIB infected C8166 cells. Briefly, HIV-1IIIB supernatant and C8166 cells were seeded in a 96-well plate with different concentration of compounds. The plate was incubated in a 37 °C, 5% CO2 incubator for 72 h. Syncytia were counting under an inverted microscope and 50% effective concentration (EC50) was calculated. Therapeutic index (TI) was calculated by the ratio of CC50/EC50.

[3] = Cytotoxicity assay (MTT); type: cell-based; conditions: human; C8166 cells, MTT, 72 h; means of two separate experiments; read-out: CC50 (50% cytotoxic concentration)
Experimental: as §1

[4] = system: HIV; design: method as in earlier work; conditions: Figure 1; cited from earlier work
[5] = Human immunodeficiency virus 1, C8166, 72 h

Compound	CC50 [1]	TI (in vitro therapeutic index, CC50 value/EC50 value) [2]	EC50 [2]	CC50 at 72 h [3]	EC50 [2, 5]	CC50 ([1]; C8166 cells, MTT, 72 h, means of two separate experiments, read-out: CC50 (50% cytotoxic concentration))	EC50 [4]
3-(2,3-Dihydroxyphenyl)-1-(4-fluorophenyl)-5-[2-(4-fluorophenyl)ethyl]-3a,6a-dihydro-1H-pyrrolo[3,4-c]pyrazole-4,6-dione [10b]	189 µM	39.85	4.73 µM	–	–	–	–
COc1cccc(C2=NN(c3ccccc3)C3C(=O)N(CCc4ccc(F)cc4)C(=O)C23)c1O (centres unmarked) [15h, 5-[2-(4-Fluorophenyl)ethyl]-3-(2-hydroxy-3-methoxyphenyl)-1-phenyl-3a,6a-dihydro-1H-pyrrolo[3,4-c]pyrazole-4,6-dione]	–	>15.22	–	> 436 µM	28.6 µM	–	–
COc1cccc(C2=NN(c3ccc(C)cc3)C3C(=O)N(CCc4ccc(F)cc4)C(=O)C23)c1O (centres unmarked) [15i, 5-[2-(4-Fluorophenyl)ethyl]-3-(2-hydroxy-3-methoxyphenyl)-1-(4-methylphenyl)-3a,6a-dihydro-1H-pyrrolo[3,4-c]pyrazole-4,6-dione]	–	>103.09	4.1 µM	> 423 µM	< 5 µM	–	–
COc1ccc(N2N=C(c3cccc(OC)c3O)C3C(=O)N(CCc4ccc(F)cc4)C(=O)C32)cc1 (centres unmarked) [15j, 5-[2-(4-Fluorophenyl)-ethyl]-3-(2-hydroxy-3-methoxyphenyl)-1-(4-methoxyphenyl)-3a,6a-dihydro-1H-pyrrolo[3,4-c]pyrazole-4,6-dione]	–	>19.34	–	> 409 µM	21.1 µM	–	–
COc1cccc(C2=NN(c3ccc(F)cc3)C3C(=O)N(CCc4ccccc4F)C(=O)C23)c1O (centres unmarked) [16a, 1-(4-Fluorophenyl)-5-[2-(2-fluorophenyl)ethyl]-3-(2-hydroxy-3-methoxyphenyl)-3a,6a-dihydro-1H-pyrrolo[3,4-c]pyrazole-4,6-dione]	–	7.78	–	19.6 µM	2.52 µM	–	–
COc1cccc(C2=NN(c3ccc(F)cc3)C3C(=O)N(CCc4cccc(F)c4)C(=O)C23)c1O (centres unmarked) [16b, 1-(4-Fluorophenyl)-5-[2-(3-fluorophenyl)ethyl]-3-(2-hydroxy-3-methoxyphenyl)-3a,6a-dihydro-1H-pyrrolo[3,4-c]pyrazole-4,6-dione]	–	11.01	–	143 µM	13 µM	–	–
COc1cccc(C2=NN(c3ccc(F)cc3)C3C(=O)N(CCc4ccc(Cl)cc4)C(=O)C23)c1O (centres unmarked) [16c, 5-[2-(4-Chlorophenyl)-ethyl]-1-(4-fluorophenyl)-3-(2-hydroxy-3-methoxyphenyl)-3a,6a-dihydro-1H-pyrrolo[3,4-c]pyrazole-4,6-dione]	–	6.73	–	70.1 µM	10.4 µM	–	–
COc1cccc(C2=NN(c3ccc(F)cc3)C3C(=O)N(CCc4ccccc4)C(=O)C23)c1O (centres unmarked) [16d, 1-(4-Fluorophenyl)-3-(2-hydroxy-3-methoxyphenyl)-5-phenethyl-3a,6a-dihydro-1H-pyrrolo[3,4-c]pyrazole-4,6-dione]	–	>23.09	–	> 436 µM	18.9 µM	–	–
COc1ccc(CCN2C(=O)C3C(c4cccc(OC)c4O)=NN(c4ccc(F)cc4)C3C2=O)cc1 (centres unmarked) [16e, 1-(4-Fluorophenyl)-3-(2-hydroxy-3-methoxyphenyl)-5-[2-(4-methoxyphenyl)ethyl]-3a,6a-dihydro-1H-pyrrolo[3,4-c]pyrazole-4,6-dione]	–	2.52	–	219 µM	87.2 µM	–	–
Cc1cn([C@H]2C[C@H](N=[N+]=[N-])[C@@H](CO)O2)c(=O)[nH]c1=O [AZT, reference compound]	–	444,588	0.0085 µM	–	–	3780 µM	–
CCOC(=O)c1ncc(O)c2c1C(=O)N(CCc1ccc(F)cc1)C2=O [compound 5]	–	–	–	–	–	–	1.65 µM
O=C1C2C(c3cccc(O)c3O)=NN(c3ccc(F)cc3)C2C(=O)N1CCc1ccc(F)cc1 (centres unmarked) [compound 6, 3-(2,3-Dihydroxyphenyl)-1-(4-fluorophenyl)-5-[2-(4-fluorophenyl)ethyl]-3a,6a-dihydro-1H-pyrrolo[3,4-c]pyrazole-4,6-dione]	–	>16.37	–	> 432 µM	26.4 µM	–	–
O=C1C2C(c3ccccc3O)=NN(c3ccc(F)cc3)C2C(=O)N1CCc1ccc(F)cc1 (centres unmarked) [compound 8, 1-(4-Fluorophenyl)-5-[2-(4-fluorophenyl)ethyl]-3-(2-hydroxyphenyl)-3a,6a-dihydro-1H-pyrrolo[3,4-c]pyrazole-4,6-dione]	–	>44.25	–	> 447 µM	10.1 µM	–	–
COc1cc([N+](=O)[O-])cc(C2=NN(c3ccc(F)cc3)C3C(=O)N(CCc4ccc(F)cc4)C(=O)C23)c1O (centres unmarked) [compound 11, 1-(4-Fluorophenyl)-5-[2-(4-fluorophenyl)ethyl]-3-(2-hydroxy-3-methoxy-5-nitrophenyl)-3a,6a-dihydro-1H-pyrrolo[3,4-c]pyrazole-4,6-dione]	–	2.15	–	90.3 µM	41.9 µM	–	–
O=C1C2C(c3c(O)ccc4ccccc34)=NN(c3ccc(F)cc3)C2C(=O)N1CCc1ccc(F)cc1 (centres unmarked) [compound 13, 1-(4-Fluorophenyl)-5-[2-(4-fluorophenyl)ethyl]-3-(2-hydroxynaphthalen-1-yl)-3a,6a-dihydro-1H-pyrrolo[3,4-c]pyrazole-4,6-dione]	–	2.00	–	9.03 µM	4.5 µM	–	–

Source: PMC6274355, “Synthesis and Anti-HIV-1 Activity Evaluation for Novel 3a,6a-Dihydro-1H-pyrrolo[3,4-c]pyrazole-4,6-dione Derivatives” (Molecules, 2016)
